Experimental data reported in ChEMBL document CHEMBL3774316, “Design, synthesis and anti-HIV-1 evaluation of hydrazide-based peptidomimetics as selective gelatinase inhibitors” (Bioorg Med Chem, 2016).

Biological target: 72 kDa type IV collagenase (Homo sapiens, UniProt P08253)
Test: Inhibition of gelatinase A (unknown origin) after 30 mins using succinylated gelatin as substrate
Conditions: not given

72 kDa type IV collagenase, sequence (P08253 whole entry): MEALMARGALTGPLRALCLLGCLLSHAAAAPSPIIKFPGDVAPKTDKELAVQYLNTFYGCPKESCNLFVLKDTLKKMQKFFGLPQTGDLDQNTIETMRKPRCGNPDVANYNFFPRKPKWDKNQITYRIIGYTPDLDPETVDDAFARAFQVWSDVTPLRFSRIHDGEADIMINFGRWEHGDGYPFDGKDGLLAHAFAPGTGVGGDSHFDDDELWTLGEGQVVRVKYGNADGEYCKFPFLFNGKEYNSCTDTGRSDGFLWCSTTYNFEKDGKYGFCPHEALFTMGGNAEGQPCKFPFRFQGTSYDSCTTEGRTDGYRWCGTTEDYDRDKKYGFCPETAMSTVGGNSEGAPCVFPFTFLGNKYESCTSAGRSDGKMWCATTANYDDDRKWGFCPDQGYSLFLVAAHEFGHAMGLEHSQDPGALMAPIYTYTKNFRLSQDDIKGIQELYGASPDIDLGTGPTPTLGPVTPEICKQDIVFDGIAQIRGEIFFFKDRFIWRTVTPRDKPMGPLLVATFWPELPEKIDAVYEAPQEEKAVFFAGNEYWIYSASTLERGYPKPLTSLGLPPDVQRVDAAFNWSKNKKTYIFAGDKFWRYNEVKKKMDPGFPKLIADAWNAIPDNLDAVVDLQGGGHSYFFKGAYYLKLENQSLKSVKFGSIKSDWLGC

Structure (SMILES) | IC50 [µM]
COc1ccccc1/C=N/NC(=O)[C@@H]1CC2(CN1S(=O)(=O)c1ccc(C)cc1)SCCS2 | 28.5
Cc1ccc(S(=O)(=O)N2CC3(C[C@H]2C(=O)N/N=C/c2ccccc2F)SCCS3)cc1 | 1.89
COc1cc(/C=N/NC(=O)[C@@H]2CC3(CN2S(=O)(=O)c2ccc(C)cc2)SCCS3)cc(OC)c1OC | 210

Continued, values first:

IC50 [µM] | Structure (SMILES)
36 | Cc1nc2ccccc2n(CC(=O)N/N=C/Cc2ccccc2)c1=O
58.2 | Cc1nc2ccccc2n(CC(=O)NNC(=O)c2c(Cl)cccc2Cl)c1=O
0.64 | Cc1ccc(S(=O)(=O)N2CC3(C[C@H]2C(=O)N/N=C/c2ccccc2Cl)SCCS3)cc1
13.2 | C/C(=N\NC(=O)Cn1c(=O)c(C)nc2ccccc21)c1ccc(Cl)cc1
98 | Cc1nc2ccccc2n(CC(=O)NN)c1=O
187 | Cc1nc2ccccc2n(CC(=O)NNC(=O)c2ccccc2)c1=O
67 | Cc1nc2ccccc2n(CC(=O)N/N=C/c2ccccc2)c1=O
34.8 | Cc1nc2ccccc2n(CC(=O)NNC(=O)c2ccc(Cl)cc2)c1=O
246 | Cc1nc2ccccc2n(CC(=O)N/N=C/c2ccc([N+](=O)[O-])cc2)c1=O
64.3 | Cc1nc2ccccc2n(CC(=O)N/N=C/c2ccc(N(C)C)cc2)c1=O
> 500 | CC(=O)NNC(=O)Cn1c(=O)c(C)nc2ccccc21

Biological target: T1, Aminopeptidase N (Sus scrofa, UniProt P15145)
T1 sequence (P15145 whole entry): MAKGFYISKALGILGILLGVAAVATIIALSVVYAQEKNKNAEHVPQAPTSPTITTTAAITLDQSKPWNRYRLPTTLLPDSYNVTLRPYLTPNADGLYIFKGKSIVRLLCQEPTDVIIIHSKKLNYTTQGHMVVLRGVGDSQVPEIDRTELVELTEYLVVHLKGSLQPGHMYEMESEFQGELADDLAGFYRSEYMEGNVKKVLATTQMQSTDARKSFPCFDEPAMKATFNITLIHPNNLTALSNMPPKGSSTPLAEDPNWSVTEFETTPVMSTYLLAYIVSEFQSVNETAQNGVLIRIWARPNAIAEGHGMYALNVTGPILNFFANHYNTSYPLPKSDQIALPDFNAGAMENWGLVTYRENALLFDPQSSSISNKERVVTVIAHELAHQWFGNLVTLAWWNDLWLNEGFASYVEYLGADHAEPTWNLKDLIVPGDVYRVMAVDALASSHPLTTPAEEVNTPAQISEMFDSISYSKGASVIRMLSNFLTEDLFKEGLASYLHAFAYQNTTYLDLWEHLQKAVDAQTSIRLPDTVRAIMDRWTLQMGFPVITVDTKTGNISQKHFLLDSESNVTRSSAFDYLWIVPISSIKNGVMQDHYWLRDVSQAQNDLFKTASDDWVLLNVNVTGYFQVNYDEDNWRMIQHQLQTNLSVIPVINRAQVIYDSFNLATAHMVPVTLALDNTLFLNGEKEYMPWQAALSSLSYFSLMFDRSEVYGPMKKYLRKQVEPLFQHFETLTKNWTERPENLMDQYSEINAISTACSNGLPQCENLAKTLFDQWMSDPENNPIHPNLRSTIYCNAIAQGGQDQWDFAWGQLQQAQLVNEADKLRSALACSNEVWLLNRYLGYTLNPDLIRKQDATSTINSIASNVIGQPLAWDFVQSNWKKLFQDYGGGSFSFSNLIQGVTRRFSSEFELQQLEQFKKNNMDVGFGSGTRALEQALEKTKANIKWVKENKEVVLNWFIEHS
Test: Inhibition of porcine microsomal aminopeptidase N preincubated for 30 mins using L-Leu-p-nitroanilide as substrate by UV-VIS spectrophotometer
Conditions: not given

Structure (SMILES) | IC50 [µM]
COc1ccccc1/C=N/NC(=O)[C@@H]1CC2(CN1S(=O)(=O)c1ccc(C)cc1)SCCS2 | > 1000
Cc1ccc(S(=O)(=O)N2CC3(C[C@H]2C(=O)NN)SCCS3)cc1 | > 1000
Cc1ccc(S(=O)(=O)N2CC3(C[C@H]2C(=O)N/N=C/c2ccccc2F)SCCS3)cc1 | > 1000
COc1ccc(/C=C/C(=O)N2C[C@@H](NC(=O)c3cccnc3)C[C@H]2C(=O)NO)cc1OC | 117
COc1cc(/C=N/NC(=O)[C@@H]2CC3(CN2S(=O)(=O)c2ccc(C)cc2)SCCS3)cc(OC)c1OC | > 1000

Other lines, results leading:

IC50 [µM] | Structure (SMILES)
223 | Cc1nc2ccccc2n(CC(=O)N/N=C/Cc2ccccc2)c1=O
299 | Cc1nc2ccccc2n(CC(=O)NNC(=O)c2c(Cl)cccc2Cl)c1=O
> 1000 | Cc1ccc(S(=O)(=O)N2CC3(C[C@H]2C(=O)N/N=C/c2ccccc2Cl)SCCS3)cc1
125 | C/C(=N\NC(=O)Cn1c(=O)c(C)nc2ccccc21)c1ccc(Cl)cc1
257 | Cc1nc2ccccc2n(CC(=O)NN)c1=O
341 | Cc1nc2ccccc2n(CC(=O)N/N=C/c2ccccc2)c1=O
272 | Cc1nc2ccccc2n(CC(=O)NNC(=O)c2ccc(Cl)cc2)c1=O
644 | Cc1nc2ccccc2n(CC(=O)N/N=C/c2ccc([N+](=O)[O-])cc2)c1=O
331 | Cc1nc2ccccc2n(CC(=O)N/N=C/c2ccc(N(C)C)cc2)c1=O
328 | CC(=O)NNC(=O)Cn1c(=O)c(C)nc2ccccc21

Test system: Human immunodeficiency virus 1
Test: Antiviral activity against HIV1 3B infected in human C8166 cells assessed as cytopathic effect by counting the number of syncytia by microscopy
Assay type: functional, organism-based
Conditions: Human immunodeficiency virus 1, 3B

Structure (SMILES) | EC50 [µM]
COc1ccccc1/C=N/NC(=O)[C@@H]1CC2(CN1S(=O)(=O)c1ccc(C)cc1)SCCS2 | 51.1
Cc1ccc(S(=O)(=O)N2CC3(C[C@H]2C(=O)NN)SCCS3)cc1 | 239
Cc1ccc(S(=O)(=O)N2CC3(C[C@H]2C(=O)N/N=C/c2ccccc2F)SCCS3)cc1 | 38.8
Cc1cn([C@H]2C[C@H](N=[N+]=[N-])[C@@H](CO)O2)c(=O)[nH]c1=O [ZIDOVUDINE] | 0.00794
COc1ccc(/C=C/C(=O)N2C[C@@H](NC(=O)c3cccnc3)C[C@H]2C(=O)NO)cc1OC | 33
COc1cc(/C=N/NC(=O)[C@@H]2CC3(CN2S(=O)(=O)c2ccc(C)cc2)SCCS3)cc(OC)c1OC | 38.5

More lines, now with the values ahead:

EC50 [µM] | Structure (SMILES)
82.8 | Cc1nc2ccccc2n(CC(=O)N/N=C/Cc2ccccc2)c1=O
51.6 | Cc1nc2ccccc2n(CC(=O)NNC(=O)c2c(Cl)cccc2Cl)c1=O
30.3 | Cc1ccc(S(=O)(=O)N2CC3(C[C@H]2C(=O)N/N=C/c2ccccc2Cl)SCCS3)cc1
> 543 | C/C(=N\NC(=O)Cn1c(=O)c(C)nc2ccccc21)c1ccc(Cl)cc1
> 862 | Cc1nc2ccccc2n(CC(=O)NN)c1=O
273 | Cc1nc2ccccc2n(CC(=O)NNC(=O)c2ccccc2)c1=O
121 | Cc1nc2ccccc2n(CC(=O)N/N=C/c2ccccc2)c1=O
169 | Cc1nc2ccccc2n(CC(=O)NNC(=O)c2ccc(Cl)cc2)c1=O
42.1 | Cc1nc2ccccc2n(CC(=O)N/N=C/c2ccc([N+](=O)[O-])cc2)c1=O
159 | Cc1nc2ccccc2n(CC(=O)N/N=C/c2ccc(N(C)C)cc2)c1=O
> 730 | CC(=O)NNC(=O)Cn1c(=O)c(C)nc2ccccc21

Test system: Human immunodeficiency virus 1
Test: Antiviral activity against HIV1 A17 infected in human C8166 cells assessed as reduction in p24 antigen level incubated for 4 hrs followed by cell plating for 72 hrs by ELISA method
Assay type: functional, organism-based
Conditions: Human immunodeficiency virus 1, A17, C8166

EC50 [µM] | Structure (SMILES)
11.4 | COc1ccccc1/C=N/NC(=O)[C@@H]1CC2(CN1S(=O)(=O)c1ccc(C)cc1)SCCS2
18.2 | Cc1ccc(S(=O)(=O)N2CC3(C[C@H]2C(=O)N/N=C/c2ccccc2Cl)SCCS3)cc1
184 | O=C1Nc2ccc(Cl)cc2[C@@](C#CC2CC2)(C(F)(F)F)O1 [EFAVIRENZ]
38.7 | COc1cc(/C=N/NC(=O)[C@@H]2CC3(CN2S(=O)(=O)c2ccc(C)cc2)SCCS3)cc(OC)c1OC

Test system: not listed separately
Test: Therapeutic index, ratio of CC50 for human C8166 cells to EC50 for HIV1 3B infected in human C8166 cells
Assay type: cell-based
Conditions: read-out: Ratio CC50/EC50

Structure (SMILES) | selectivity ratio
COc1ccccc1/C=N/NC(=O)[C@@H]1CC2(CN1S(=O)(=O)c1ccc(C)cc1)SCCS2 | 7.6
Cc1nc2ccccc2n(CC(=O)N/N=C/Cc2ccccc2)c1=O | > 7.2
Cc1ccc(S(=O)(=O)N2CC3(C[C@H]2C(=O)NN)SCCS3)cc1 | > 2.2
Cc1ccc(S(=O)(=O)N2CC3(C[C@H]2C(=O)N/N=C/c2ccccc2F)SCCS3)cc1 | 7.2
Cc1nc2ccccc2n(CC(=O)NNC(=O)c2c(Cl)cccc2Cl)c1=O | 2.97
Cc1ccc(S(=O)(=O)N2CC3(C[C@H]2C(=O)N/N=C/c2ccccc2Cl)SCCS3)cc1 | > 13.3
Cc1cn([C@H]2C[C@H](N=[N+]=[N-])[C@@H](CO)O2)c(=O)[nH]c1=O [ZIDOVUDINE] | 589000
Cc1nc2ccccc2n(CC(=O)N/N=C/c2ccccc2)c1=O | > 5.2
Cc1nc2ccccc2n(CC(=O)NNC(=O)c2ccc(Cl)cc2)c1=O | > 3.2
Cc1nc2ccccc2n(CC(=O)N/N=C/c2ccc([N+](=O)[O-])cc2)c1=O | > 7.7
COc1ccc(/C=C/C(=O)N2C[C@@H](NC(=O)c3cccnc3)C[C@H]2C(=O)NO)cc1OC | > 13.8
COc1cc(/C=N/NC(=O)[C@@H]2CC3(CN2S(=O)(=O)c2ccc(C)cc2)SCCS3)cc(OC)c1OC | 8.5
Cc1nc2ccccc2n(CC(=O)N/N=C/c2ccc(N(C)C)cc2)c1=O | 2.2

Test system: C8166
Test: Cytotoxicity against human C8166 cells after 72 hrs by MTT assay
Assay type: functional
Conditions: C8166, 72 h

Structure (SMILES) | CC50 [µM]
COc1ccccc1/C=N/NC(=O)[C@@H]1CC2(CN1S(=O)(=O)c1ccc(C)cc1)SCCS2 | 388
Cc1nc2ccccc2n(CC(=O)N/N=C/Cc2ccccc2)c1=O | > 599
Cc1ccc(S(=O)(=O)N2CC3(C[C@H]2C(=O)NN)SCCS3)cc1 | > 519
Cc1ccc(S(=O)(=O)N2CC3(C[C@H]2C(=O)N/N=C/c2ccccc2F)SCCS3)cc1 | 280
Cc1nc2ccccc2n(CC(=O)NNC(=O)c2c(Cl)cccc2Cl)c1=O | 153
Cc1ccc(S(=O)(=O)N2CC3(C[C@H]2C(=O)N/N=C/c2ccccc2Cl)SCCS3)cc1 | > 404
C/C(=N\NC(=O)Cn1c(=O)c(C)nc2ccccc21)c1ccc(Cl)cc1 | > 543
Cc1nc2ccccc2n(CC(=O)NN)c1=O | > 862
Cc1nc2ccccc2n(CC(=O)NNC(=O)c2ccccc2)c1=O | > 595
Cc1cn([C@H]2C[C@H](N=[N+]=[N-])[C@@H](CO)O2)c(=O)[nH]c1=O [ZIDOVUDINE] | 4680
Cc1nc2ccccc2n(CC(=O)N/N=C/c2ccccc2)c1=O | > 625
Cc1nc2ccccc2n(CC(=O)NNC(=O)c2ccc(Cl)cc2)c1=O | > 540
Cc1nc2ccccc2n(CC(=O)N/N=C/c2ccc([N+](=O)[O-])cc2)c1=O | > 548
COc1ccc(/C=C/C(=O)N2C[C@@H](NC(=O)c3cccnc3)C[C@H]2C(=O)NO)cc1OC | > 454
COc1cc(/C=N/NC(=O)[C@@H]2CC3(CN2S(=O)(=O)c2ccc(C)cc2)SCCS3)cc(OC)c1OC | 327
Cc1nc2ccccc2n(CC(=O)N/N=C/c2ccc(N(C)C)cc2)c1=O | 355
CC(=O)NNC(=O)Cn1c(=O)c(C)nc2ccccc21 | > 730

Test system: Human immunodeficiency virus 1
Test: Antiviral activity against HIV1 3B infected in human C8166 cells assessed as reduction in p24 antigen level incubated for 2 hrs followed by cell plating for 72 hrs by ELISA method
Assay type: functional, organism-based
Conditions: Human immunodeficiency virus 1, 3B

EC50 [µM] | Structure (SMILES)
69.6 | COc1ccccc1/C=N/NC(=O)[C@@H]1CC2(CN1S(=O)(=O)c1ccc(C)cc1)SCCS2
149 | Cc1ccc(S(=O)(=O)N2CC3(C[C@H]2C(=O)N/N=C/c2ccccc2Cl)SCCS3)cc1
0.00436 | Cc1cn([C@H]2C[C@H](N=[N+]=[N-])[C@@H](CO)O2)c(=O)[nH]c1=O [ZIDOVUDINE]
65.1 | COc1cc(/C=N/NC(=O)[C@@H]2CC3(CN2S(=O)(=O)c2ccc(C)cc2)SCCS3)cc(OC)c1OC

Test system: Human immunodeficiency virus 1
Test: Antiviral activity against HIV1 74V infected in human C8166 cells assessed as reduction in p24 antigen level incubated for 4 hrs followed by cell plating for 72 hrs by ELISA method
Assay type: functional, organism-based
Conditions: Human immunodeficiency virus 1, 74V

EC50 [µM] | Structure (SMILES)
30 | COc1ccccc1/C=N/NC(=O)[C@@H]1CC2(CN1S(=O)(=O)c1ccc(C)cc1)SCCS2
93.6 | Cc1ccc(S(=O)(=O)N2CC3(C[C@H]2C(=O)N/N=C/c2ccccc2Cl)SCCS3)cc1
0.00152 | Cc1cn([C@H]2C[C@H](N=[N+]=[N-])[C@@H](CO)O2)c(=O)[nH]c1=O [ZIDOVUDINE]
96 | COc1cc(/C=N/NC(=O)[C@@H]2CC3(CN2S(=O)(=O)c2ccc(C)cc2)SCCS3)cc(OC)c1OC
